We go through five compounds from patent US12281149B2, “Modulators of G-protein coupled receptors” (priority 2021, dated 2025).

*1 amine or outer side, *2 acyl side, *3 side chain or, on linkers, in order; H or OH if unused. Where a SMILES comes first, the peptide text is derived from it. Side-chain parts run from the residue outwards. [ ]: non-standard residue; d: D form. The star is where a group is joined. Isobutyryl(2-(3-CN-5-F-Ph)) = CC(C)(C(=O)*)c1cc(F)cc(C#N)c1; C20 diacid = O=C(O)CCCCCCCCCCCCCCCCCCC(=O)*; γGlu = O=C(O)[C@H](CCC(=O)[*:2])N[*:1]; X54 = Cc1cn(C(C)(C)C(=O)*)nc1C(F)(F)F; X7 = CC(C)(C(=O)*)c1cccc(C#N)c1; AEEA = NCCOCCOCC(=O)O; Aib = CC(C)(N)C(=O)O; βAla = NCCC(=O)O Where only a bound is given, the exact number is not on record here.

Type in all cases: cell-based
Assay [1] addresses T1, GIP receptor (Homo sapiens, UniProt P48546).
T1 sequence (P48546 22-466): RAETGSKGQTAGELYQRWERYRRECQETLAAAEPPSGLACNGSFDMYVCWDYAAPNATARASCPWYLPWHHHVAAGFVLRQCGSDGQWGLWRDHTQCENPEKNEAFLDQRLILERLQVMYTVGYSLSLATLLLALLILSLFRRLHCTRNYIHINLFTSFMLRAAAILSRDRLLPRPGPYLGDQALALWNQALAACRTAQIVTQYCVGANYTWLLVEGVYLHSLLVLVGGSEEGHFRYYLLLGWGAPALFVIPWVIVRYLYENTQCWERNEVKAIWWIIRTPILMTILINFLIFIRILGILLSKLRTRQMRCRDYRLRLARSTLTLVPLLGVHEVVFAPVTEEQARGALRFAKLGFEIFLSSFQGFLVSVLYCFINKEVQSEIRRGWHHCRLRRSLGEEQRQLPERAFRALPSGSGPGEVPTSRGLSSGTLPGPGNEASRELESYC
As to the kind of experiment: HitHunter cAMP assay, GIP receptor. To be noted: for Emax: CHO cells, cAMP, normalized to maximum signal from GIP (high) and DMSO (low), read-out: Emax GIP-1R. For orientation: cAMP levels reflect the balance of adenylyl cyclase and phosphodiesterase activity.
Experimental: CAMP accumulation was measured in Chinese hamster ovary (CHO) cells stably expressing the human GLP-1 receptor or GIP receptor using the HitHunter CAMP Assay for Small Molecules Kit (Eurofins). Briefly, cells were grown in Ham's F12 Nutrient Mix with 10% FBS and lifted with Cell dissociation buffer, Enzyme free, PBS based (ThermoFisher). Cells were pelleted and resuspended in Hank's buffered saline solution with 10 mM Hepes and 625 μM 3-isobutyl-1-methylxanthine. The antibody reagent was then added to cells at a 1:2 ratio and 5 μL of mixture was seeded in 384-well small volume white assay plates, at 10,000 cells/well. Cells were then treated with 50 nl compound in DMSO using an ECHO 550 acoustic dispenser (Labcyte) in a 20-point dose response format in triplicate for 30 min. Cells were the lysed and detection reagents added according to the manufacturer's protocol. After overnight incubation, luminescence was measured using a Perkin Elmer Envision plate reader. Raw data was normalized to the maximum signal from GLP-1 or GIP (high) and DMSO (low). Dose response curves were analyzed using GraphPad Prism 9.0.

Assay [2] has as its target T1, GIP receptor. Briefly: PathHunter β-arrestin assay, GIP receptor. On the set-up: host or cells: PathHunter CHO-K1 GIPR β-Arrestin Cell Line.
Assay [3] deals with T2, GLP-1 receptor (Homo sapiens, UniProt P43220). As to the kind of experiment: HitHunter cAMP assay, GLP-1 receptor. To be noted: for Emax: CHO cells, cAMP, normalized to maximum signal from GLP-1 (high) and DMSO (low), read-out: Emax GLP-1R.
T2 sequence (P43220 24-463): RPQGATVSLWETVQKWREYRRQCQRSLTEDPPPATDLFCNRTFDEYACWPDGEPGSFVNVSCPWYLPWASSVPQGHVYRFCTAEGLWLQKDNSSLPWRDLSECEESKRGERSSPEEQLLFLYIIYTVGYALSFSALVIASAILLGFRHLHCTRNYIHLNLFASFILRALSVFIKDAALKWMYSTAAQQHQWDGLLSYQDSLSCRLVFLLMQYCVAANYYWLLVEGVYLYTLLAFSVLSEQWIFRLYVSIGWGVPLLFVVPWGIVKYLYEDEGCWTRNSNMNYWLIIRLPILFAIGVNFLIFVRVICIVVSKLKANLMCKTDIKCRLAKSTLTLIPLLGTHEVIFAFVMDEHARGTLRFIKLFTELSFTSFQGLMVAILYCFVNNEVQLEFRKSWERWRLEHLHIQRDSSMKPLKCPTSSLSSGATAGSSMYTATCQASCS
For assay [4], the target named is T2, GLP-1 receptor. As to the kind of experiment: PathHunter β-arrestin assay, GLP-1 receptor. Details: host or cells: PathHunter CHO-K1 GLP1R β-Arrestin Cell Line.
Where [5] appears, read: CHO cells stably expressing GIP receptor, cAMP accumulation, 30 min, read-out: EC50 GIP-1R.
[6] abbreviates: β-arrestin-2 recruitment, PathHunter CHO-K1 GIPR β-Arrestin Cell Line, 90 min at 37° C., normalized to GIP, read-out: GIPR β Arrestin EC50.
The mark [7] stands for this setting: CHO cells stably expressing human GLP-1 receptor, cAMP accumulation, 30 min, read-out: EC50 GLP-1R.
The mark [8] stands for this setting: β-arrestin-2 recruitment, PathHunter CHO-K1 GLP1R β-Arrestin Cell Line, 90 min at 37° C., normalized to GLP-1, read-out: GLP-1R β Arrestin EC50.

The EC50 is the concentration giving half of the maximal effect. As usually defined, the Emax is the greatest response seen or fitted, relative to the assay's reference. In the case of `CC[C@H](C)[C@H](NC(=O)[C@H](CC(C)C)NC(=O)[C@H](Cc1c[nH]c2ccccc12)NC(=O)[C@H](CCC(N)=O)NC(=O)[C@@H](NC(=O)[C@H](Cc1ccccc1)NC(=O)[C@H](C)NC(=O)[C@H](CCCCNC(=O)COCCOCCNC(=O)COCCOCCNC(=O)CC[C@H](NC(=O)CCCCCCCCCCCCCCCCCCC(=O)O)C(=O)O)NC(=O)[C@H](CCC(N)=O)NC(=O)[C@H](C)NC(=O)[C@@H](NC(=O)[C@H](CCCCN)NC(=O)[C@H](CC(=O)O)NC(=O)[C@H](CC(C)C)NC(=O)C(C)(C)NC(=O)[C@@H](NC(=O)[C@H](CO)NC(=O)[C@H](Cc1ccc(O)cc1)NC(=O)[C@H](CC(=O)O)NC(=O)[C@H](CO)NC(=O)[C@@H](NC(=O)[C@H](Cc1ccccc1)NC(=O)[C@@H](NC(=O)CNC(=O)[C@H](CCC(=O)O)NC(=O)CCNC(=O)C(C)(C)c1cccc(C#N)c1)[C@@H](C)O)[C@@H](C)O)[C@@H](C)CC)[C@@H](C)CC)C(C)C)C(=O)N[C@@H](C)C(=O)NCC(=O)NCC(=O)N1CCC[C@H]1C(=O)N[C@@H](CO)C(=O)N[C@@H](CO)C(=O)NCC(=O)N[C@@H](C)C(=O)N1CCC[C@H]1C(=O)N1CCC[C@H]1C(=O)N1CCC[C@H]1C(=O)N[C@@H](CO)C(N)=O` [Compound 150] ({X7-βAla}-EGTFTSDYSI[Aib]LDKIAQK([AEEA-AEEA-γGlu-C20 diacid])AFVQWLIAGGPSSGAPPPS-NH2), the EC50 in assay [1] is 0.1 to 1 nM; in assay [2], less than 1000 nM; in assay [3], 0.1 to 1 nM; in assay [4], greater than 1000 nM. For the same compound, the Emax in assay [1] was found to be 91%; in assay [3], 103%.

`CC[C@H](C)[C@H](NC(=O)[C@H](CO)NC(=O)[C@H](Cc1ccc(O)cc1)NC(=O)[C@H](CC(=O)O)NC(=O)[C@H](CO)NC(=O)[C@@H](NC(=O)[C@H](Cc1ccccc1)NC(=O)[C@@H](NC(=O)CNC(=O)[C@H](CCC(=O)O)NC(=O)CCNC(=O)[C@]1(c2ccccc2)CNC(=O)C1)[C@@H](C)O)[C@@H](C)O)C(=O)N[C@@H](Cc1ccc(O)cc1)C(=O)N[C@@H](CC(C)C)C(=O)N[C@@H](CC(=O)O)C(=O)N[C@@H](CCCCN)C(=O)N[C@@H](CCC(N)=O)C(=O)N[C@@H](C)C(=O)N[C@@H](C)C(=O)N[C@@H](CCCCNC(=O)COCCOCCNC(=O)COCCOCCNC(=O)CC[C@H](NC(=O)CCCCCCCCCCCCCCCCCCC(=O)O)C(=O)O)C(=O)N[C@@H](CCC(=O)O)C(=O)N[C@@H](Cc1ccccc1)C(=O)N[C@H](C(=O)N[C@@H](CC(N)=O)C(=O)N[C@@H](Cc1c[nH]c2ccccc12)C(=O)N[C@@H](CC(C)C)C(=O)N[C@@H](CC(C)C)C(=O)N[C@@H](C)C(=O)NCC(=O)NCC(=O)N1CCC[C@H]1C(=O)N[C@@H](CO)C(=O)N[C@@H](CO)C(=O)NCC(=O)N[C@@H](C)C(=O)N1CCC[C@H]1C(=O)N1CCC[C@H]1C(=O)N1CCC[C@H]1C(=O)N[C@@H](CO)C(N)=O)C(C)C` (single isomer, unassigned) [Compound 128]: the EC50 in assay [1] (setting [5]) was 10 to 100 nM; in assay [2] (setting [6]), greater than 1000 nM; in assay [3] (setting [7]), 1 to 10 nM; in assay [4] (setting [8]), greater than 1000 nM. The Emax turned out to be 101% in assay [1] and 99% in assay [3].

With `CC[C@H](C)[C@H](NC(=O)[C@H](CC(C)C)NC(=O)[C@H](Cc1c[nH]c2ccccc12)NC(=O)[C@H](CCC(N)=O)NC(=O)[C@@H](NC(=O)[C@H](Cc1ccccc1)NC(=O)[C@H](C)NC(=O)[C@H](CCCCNC(=O)COCCOCCNC(=O)COCCOCCNC(=O)CC[C@H](NC(=O)CCCCCCCCCCCCCCCCCCC(=O)O)C(=O)O)NC(=O)[C@H](CCC(N)=O)NC(=O)[C@H](C)NC(=O)[C@@H](NC(=O)[C@H](CCCCN)NC(=O)[C@H](CC(=O)O)NC(=O)[C@H](CC(C)C)NC(=O)C(C)(C)NC(=O)[C@@H](NC(=O)[C@H](CO)NC(=O)[C@H](Cc1ccc(O)cc1)NC(=O)[C@H](CC(=O)O)NC(=O)[C@H](CO)NC(=O)[C@@H](NC(=O)[C@H](Cc1ccccc1)NC(=O)[C@@H](NC(=O)CNC(=O)[C@H](CCC(=O)O)NC(=O)CCNC(=O)C(C)(C)n1cc(C)c(C(F)(F)F)n1)[C@@H](C)O)[C@@H](C)O)[C@@H](C)CC)[C@@H](C)CC)C(C)C)C(=O)N[C@@H](C)C(=O)NCC(=O)NCC(=O)N1CCC[C@H]1C(=O)N[C@@H](CO)C(=O)N[C@@H](CO)C(=O)NCC(=O)N[C@@H](C)C(=O)N1CCC[C@H]1C(=O)N1CCC[C@H]1C(=O)N1CCC[C@H]1C(=O)N[C@@H](CO)C(N)=O` [Compound 158] ({X54-βAla}-EGTFTSDYSI[Aib]LDKIAQK([AEEA-AEEA-γGlu-C20 diacid])AFVQWLIAGGPSSGAPPPS-NH2), the EC50 was 10 to 100 nM in assay [1] (setting [5]), greater than 1000 nM in assay [2] (setting [6]), 0.1 to 1 nM in assay [3] (setting [7]) and greater than 1000 nM in assay [4] (setting [8]). Moreover, the Emax in assay [1] came out at 118%; in assay [3], 97%.

`CC[C@H](C)[C@H](NC(=O)[C@H](CO)NC(=O)[C@H](Cc1ccc(O)cc1)NC(=O)[C@H](CC(=O)O)NC(=O)[C@H](CO)NC(=O)[C@@H](NC(=O)[C@H](Cc1ccccc1)NC(=O)[C@@H](NC(=O)CNC(=O)[C@H](CCC(=O)O)NC(=O)CCNC(=O)[C@]1(c2ccccc2)CNC(=O)C1)[C@@H](C)O)[C@@H](C)O)C(=O)N[C@@H](Cc1ccc(O)cc1)C(=O)N[C@@H](CC(C)C)C(=O)N[C@@H](CC(=O)O)C(=O)N[C@@H](CCCCN)C(=O)N[C@@H](CCC(N)=O)C(=O)N[C@@H](C)C(=O)N[C@@H](C)C(=O)NC(C)(C)C(=O)N[C@@H](CCC(=O)O)C(=O)N[C@@H](Cc1ccccc1)C(=O)N[C@H](C(=O)N[C@@H](CC(N)=O)C(=O)N[C@@H](Cc1c[nH]c2ccccc12)C(=O)N[C@@H](CC(C)C)C(=O)N[C@@H](CC(C)C)C(=O)N[C@@H](C)C(=O)NCC(=O)NCC(=O)N1CCC[C@H]1C(=O)N[C@@H](CO)C(=O)N[C@@H](CO)C(=O)NCC(=O)N[C@@H](C)C(=O)N1CCC[C@H]1C(=O)N1CCC[C@H]1C(=O)N1CCC[C@H]1C(=O)N[C@@H](CO)C(=O)N[C@@H](CCCCNC(=O)COCCOCCNC(=O)COCCOCCNC(=O)CC[C@H](NC(=O)CCCCCCCCCCCCCCCCCCC(=O)O)C(=O)O)C(N)=O)C(C)C` (single isomer, unassigned) [Compound 130]: the EC50 in assay [1] (setting [5]) is 1 to 10 nM; in assay [2] (setting [6]) it was greater than 1000 nM; in assay [3] (setting [7]), 1 to 10 nM; in assay [4] (setting [8]), greater than 1000 nM. The values for the maximal response (Emax) in assay [1] and in assay [3] were 106% and 107%, respectively.

Turning to `CC[C@H](C)[C@H](NC(=O)[C@H](CC(C)C)NC(=O)[C@H](Cc1c[nH]c2ccccc12)NC(=O)[C@H](CCC(N)=O)NC(=O)[C@@H](NC(=O)[C@H](Cc1ccccc1)NC(=O)[C@H](CCC(=O)O)NC(=O)[C@H](CCCCNC(=O)COCCOCCNC(=O)COCCOCCNC(=O)CC[C@H](NC(=O)CCCCCCCCCCCCCCCCCCC(=O)O)C(=O)O)NC(=O)[C@H](CCC(N)=O)NC(=O)[C@H](C)NC(=O)[C@@H](NC(=O)[C@H](CCCCN)NC(=O)[C@H](CC(=O)O)NC(=O)[C@H](CC(C)C)NC(=O)C(C)(C)NC(=O)[C@@H](NC(=O)[C@H](CO)NC(=O)[C@H](Cc1ccc(O)cc1)NC(=O)[C@H](CC(=O)O)NC(=O)[C@H](CO)NC(=O)[C@@H](NC(=O)[C@H](Cc1ccccc1)NC(=O)[C@@H](NC(=O)CNC(=O)[C@H](CCC(=O)O)NC(=O)CCNC(=O)C(C)(C)c1cc(F)cc(C#N)c1)[C@@H](C)O)[C@@H](C)O)[C@@H](C)CC)[C@@H](C)CC)C(C)C)C(=O)N[C@@H](C)C(=O)NCC(=O)NCC(=O)N1CCC[C@H]1C(=O)N[C@@H](CO)C(=O)N[C@@H](CO)C(=O)NCC(=O)N[C@@H](C)C(=O)N1CCC[C@H]1C(=O)N1CCC[C@H]1C(=O)N1CCC[C@H]1C(=O)N[C@@H](CO)C(N)=O` [Compound 196] ({Isobutyryl(2-(3-CN-5-F-Ph))-βAla}-EGTFTSDYSI[Aib]LDKIAQK([AEEA-AEEA-γGlu-C20 diacid])EFVQWLIAGGPSSGAPPPS-NH2), the EC50 in assay [1] (setting [5]) was 1 to 10 nM; in assay [2] (setting [6]), greater than 1000 nM; in assay [3] (setting [7]), 0.1 to 1 nM; in assay [4] (setting [8]), greater than 1000 nM. For the same compound, the Emax in assay [1] was determined as 100%; in assay [3] it was 95%.
